Results on 7 compounds are retold here after US7507736B2, “Indol-2-yl-piperazin-1-yl-methanone derivatives” (Hoffmann-La Roche Inc., priority 2007, dated 2009).

In general, Ki refers to the dissociation constant of the complex between target and ligand, obtained from inhibition or displacement.

T1 sequence (Q9Y5N1 whole entry): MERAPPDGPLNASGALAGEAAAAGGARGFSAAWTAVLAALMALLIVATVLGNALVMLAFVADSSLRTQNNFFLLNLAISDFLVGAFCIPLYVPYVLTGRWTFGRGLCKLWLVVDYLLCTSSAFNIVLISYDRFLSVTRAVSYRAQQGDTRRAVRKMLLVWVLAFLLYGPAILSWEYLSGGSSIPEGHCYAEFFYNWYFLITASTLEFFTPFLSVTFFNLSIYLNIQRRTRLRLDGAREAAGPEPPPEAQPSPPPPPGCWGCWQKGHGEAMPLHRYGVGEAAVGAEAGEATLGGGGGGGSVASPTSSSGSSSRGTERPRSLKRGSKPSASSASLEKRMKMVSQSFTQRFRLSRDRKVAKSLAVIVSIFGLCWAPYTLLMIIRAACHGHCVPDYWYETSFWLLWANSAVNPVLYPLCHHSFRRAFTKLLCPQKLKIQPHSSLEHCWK

The assay addresses T1, human H3R (Homo sapiens, UniProt Q9Y5N1).
T1 construct: expressed in transfected cells; host or cells: CHO cells
Briefly: Binding assay with 3H-(R)α-methylhistamine (competition binding, H3R-CHO membranes). To be noted: competition vs 3H(R)α-methylhistamine (1 nM), membranes of the human H3R-CHO cell line; Ki calculated from IC50 by Cheng-Prusoff. As to the method:
Binding Assay with ^3H—(R)α-methylhistamine
Saturation binding experiments were performed using HR3-CHO membranes prepared as described in Takahashi, K, Tokita, S., Kotani, H. (2003) J. Pharmacol. Exp. Therapeutics 307, 213-218.
An appropriate amount of membrane (60 to 80 μg protein/well) was incubated with increasing concentrations of ^3H(R)α-Methylhistamine di-hydrochloride (0.10 to 10 nM). Non specific binding was determined using a 200 fold excess of cold (R)α-Methylhistamine dihydrobromide (500 nM final concentration). The incubation was carried out at room temperature (in deep-well plates shaking for three hours). The final volume in each well was 250 μl. The incubation was followed by rapid filtration on GF/B filters (pre-soaked with 100 μl of 0.5% PEI in Tris 50 mM shaking at 200 rpm for two hours). The filtration was made using a cell-harvester and the filter plates were then washed five times with ice cold washing buffer containing 0.5 M NaCl. After harvesting, the plates were dried at 55° C. for 60 min, then we added scintillation fluid (Microscint 40, 40 microl in each well) and the amount of radioactivity on the filter was determined in Packard top-counter after shaking the plates for two hours at 200 rpm at room temperature. • Binding Buffer: 50 mM Tris-HCl pH 7.4 and 5 mM MgCl2×6H2O pH 7.4. Washing Buffer: 50 mM Tris-HCl pH 7.4 and 5 mM MgCl2×6H2O and 0.5 M NaCl pH 7.4.
Indirect measurement of affinity of H3R inverse agonists: twelve increasing concentrations (ranging from 10 μM to 0.3 nM) of the selected compounds were always tested in competition binding experiments using membrane of the human H3R—CHO cell line. An appropriate amount of protein, e.g. approximately 500 cpm binding of RAMH at Kd, were incubated for 1 hour at room temperature in 250 μl final volume in 96-well plates in presence of ^3H(R)α-methylhistamine (1 nM final concentration=Kd). Non-specific binding was determined using a 200 fold excess of cold (R)α-methylhistamine dihydrobromide.
All compounds were tested at a single concentration in duplicate. […] The concentration at which 50% inhibition of the radioligand ^3H(R)α-methylhistamine is obtained (the IC50) is determined from the linear regression of a plot of the logarithm of the concentration versus percent inhibition measured for the different concentrations. Ki's were calculated from IC50 based on Cheng-Prusoff equation (Cheng, Y. Prusoff, W H (1973) Biochem Pharmacol 22, 3099-3108): Ki=IC50/[1+D/Kd] wherein D is the concentration of the radioligand and Kd is the binding constant for the radioligand binding to the receptor under the conditions used in the competition experiment.
As for `CC(C)N1CCC(Oc2cc3cc(C(=O)N4CCN(S(=O)(=O)N(C)C)CC4)[nH]c3cc2Br)CC1` [Example 3, 4-[6-Bromo-5-(1-isopropyl-piperidin-4-yloxy)-1H-indole-2-carbonyl]-piperazine-1-sulfonic acid dimethylamide], the Ki was 4.3 nM.
Then `CC(C)N1CCC(Oc2cc3cc(C(=O)N4CCN(C(=O)C5CC5)CC4)[nH]c3cc2Br)CC1` [Example 18, [6-Bromo-5-(1-isopropyl-piperidin-4-yloxy)-1H-indol-2-yl]-(4-cyclopropanecarbonyl-piperazin-1-yl)-methanone], with 2.3 nM; and `Cc1ccc(S(=O)(=O)N2CCN(C(=O)c3cc4cc(O[C@H]5C[C@H]6CC[C@@H](C5)N6C(C)C)ccc4n3C(C)C)CC2)cc1` [Example 44, [1-Isopropyl-5-((1S,3r,5R)-8-isopropyl-8-aza-bicyclo[3.2.1]oct-3-yloxy)-1H-indol-2-yl]-[4-(toluene-4-sulfonyl)-piperazin-1-yl]-methanone], with 2.4 nM; and `CC(=O)N1CCN(C(=O)c2cc3cc(OC4CCN(C(C)C)CC4)c(Br)cc3n2-c2ccnc(Cl)c2)CC1` [Example 28, 1-{4-[6-Bromo-1-(2-chloro-pyridin-4-yl)-5-(1-isopropyl-piperidin-4-yloxy)-1H-indole-2-carbonyl]-piperazin-1-yl}-ethanone], with 1.8 nM.
Consider `COC(=O)N1CCN(C(=O)c2cc3cc(OC4CCN(C(C)C)CC4)ccc3n2C(C)C)CC1` [Example 73, 4-[1-Isopropyl-5-(1-isopropyl-piperidin-4-yloxy)-1H-indole-2-carbonyl]-piperazine-1-carboxylic acid methyl ester], for which the inhibition constant (Ki) is 10.4 nM.
As to `CC(C)N1CCC(Oc2cc3cc(C(=O)N4CCN(S(C)(=O)=O)CC4)n(C(C)C)c3cc2Br)CC1` [Example 5, [6-Bromo-1-isopropyl-5-(1-isopropyl-piperidin-4-yloxy)-1H-indol-2-yl]-(4-methanesulfonyl-piperazin-1-yl)-methanone], the inhibitory constant (Ki) is 3.4 nM.
Turning to `CC(C)N1CCC(Oc2ccc3c(c2)cc(C(=O)N2CCN(S(C)(=O)=O)CC2)n3CC(F)F)CC1` [Example 55, [1-(2,2-Difluoro-ethyl)-5-(1-isopropyl-piperidin-4-yloxy)-1H-indol-2-yl]-(4-methanesulfonyl-piperazin-1-yl)-methanone], the Ki was 6.7 nM.
